Test results reported in patent publication US12336991B2, “Factor XIIA inhibitors” (UNIVERSITY OF LEEDS, priority 2018, dated 2025).

Assays:
Assay type in all cases: biochemical
FXIIa = target: T1, FXIIa (Homo sapiens, UniProt P00748); assay: Determination of Factor XIIa inhibition, chromogenic substrate S-2302 assay; settings: human FXIIa alpha
T1 sequence (P00748 373-615 limits assumed): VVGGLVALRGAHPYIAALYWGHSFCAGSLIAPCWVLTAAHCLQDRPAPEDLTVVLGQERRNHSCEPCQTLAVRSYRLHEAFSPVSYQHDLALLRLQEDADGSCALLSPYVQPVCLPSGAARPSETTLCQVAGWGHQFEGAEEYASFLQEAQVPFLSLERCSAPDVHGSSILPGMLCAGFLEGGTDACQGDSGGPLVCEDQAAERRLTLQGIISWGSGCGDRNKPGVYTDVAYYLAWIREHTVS
T1 sequence (P00748 20-372 partner limits assumed): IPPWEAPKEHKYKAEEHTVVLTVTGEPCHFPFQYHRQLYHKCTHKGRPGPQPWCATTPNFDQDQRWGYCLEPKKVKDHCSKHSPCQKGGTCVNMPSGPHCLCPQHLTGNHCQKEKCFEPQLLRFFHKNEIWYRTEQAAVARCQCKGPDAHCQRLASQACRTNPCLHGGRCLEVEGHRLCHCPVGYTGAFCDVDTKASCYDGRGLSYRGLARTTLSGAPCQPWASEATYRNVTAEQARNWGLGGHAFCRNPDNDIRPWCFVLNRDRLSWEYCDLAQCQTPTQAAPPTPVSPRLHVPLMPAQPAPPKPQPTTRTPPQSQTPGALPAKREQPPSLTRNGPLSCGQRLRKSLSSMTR
Procedure, shortened: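 FXIIa (10 nM) preincubated with compound 10 min at 37° C. in 50 mM Tris, 137 mM NaCl pH 7.4, 5% DMSO, top concentration 500 μM, then S-2302 added ([…]). Absorbance at 405 nm read kinetically for 3 h; IC50 from initial rates, converted to Ki by Cheng-Prusoff.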

FXa = FXa (Homo sapiens, UniProt P00742); assay: Determination of selectivity: FXa inhibition, chromogenic substrate S2765 assay; settings: fold selectivity for FXIIa over FXa
Procedure, shortened: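 Human FXa (5 nM) preincubated with compound (top 500 μM, 5% DMSO) 10 min at 37 °C in 50 mM Tris, 137 mM NaCl pH 7.4, then S2765 ([…]) added; A405 kinetics over 3 h at 37 °C. IC50 from initial rates, converted to Ki via Cheng-Prusoff.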

thrombin = target: T2, thrombin (Homo sapiens, UniProt P00734); assay: Determination of selectivity: thrombin inhibition, chromogenic substrate GPR assay; settings: fold selectivity for FXIIa over thrombin
T2 construct: FXa (5 nM) and thrombin (5 nM)
Procedure, shortened: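 Thrombin (5 nM) preincubated with compound 10 min at 37 °C in 50 mM Tris, 137 mM NaCl, pH 7.4, 5% DMSO, then GPR substrate ([…]) added. Absorbance at 405 nm read kinetically for 3 h; IC50 from initial rates, converted to Ki via Ki=IC50/(1+[S]/Km).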

Chain of FXa (P00742 235-488 limits assumed): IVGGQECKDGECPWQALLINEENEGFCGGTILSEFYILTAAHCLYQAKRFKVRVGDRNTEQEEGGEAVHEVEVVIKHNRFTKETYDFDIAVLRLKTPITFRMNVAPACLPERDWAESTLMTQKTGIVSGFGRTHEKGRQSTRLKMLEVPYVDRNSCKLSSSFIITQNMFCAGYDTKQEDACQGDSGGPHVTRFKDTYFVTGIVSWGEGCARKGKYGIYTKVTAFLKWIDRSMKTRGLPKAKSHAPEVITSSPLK
Chain of FXa (P00742 41-179 partner limits assumed): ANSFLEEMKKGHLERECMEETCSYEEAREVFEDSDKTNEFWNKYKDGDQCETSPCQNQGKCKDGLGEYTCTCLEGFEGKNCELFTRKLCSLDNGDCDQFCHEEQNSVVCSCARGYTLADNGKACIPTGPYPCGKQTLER

Structure (SMILES)	Ki (FXIIa)	FXa (human)/FXIIa alpha (human) (FXa)	Thrombin (human)/FXIIa alpha (human) (thrombin)
COc1ccc(C[C@@H]2C[C@@H](C(=O)NCc3ccc4c(c3)nnn4C)N(C(=O)[C@H]3C[C@@H](Oc4ccccc4)CN3)C2)cc1 [Example M05351]	> 2000 nM	∘∘	++ (fold selectivity value of 10 to 100)
COc1ccc(C[C@@H]2C[C@@H](C(=O)NCc3ccc4c(c3)nnn4C)N(C(=O)[C@H]3C[C@@H](c4ccccc4)CN3)C2)cc1F [Example M05352]	200 to 2000 nM	∘∘∘	+++ (fold selectivity values greater than 100)
COc1ccc(C[C@@H]2C[C@@H](C(=O)NCc3ccc4c(c3)nnn4C)N(C(=O)[C@H]3C[C@@H](c4ccncc4)CN3)C2)cc1 [Example M05353]	> 2000 nM	∘∘	++ (fold selectivity value of 10 to 100)
COc1ccc(C[C@@H]2C[C@@H](C(=O)NCc3ccc4c(c3)nnn4C)N(C(=O)[C@H]3C[C@@H](c4cccnc4)CN3)C2)cc1 [Example M05354]	200 to 2000 nM	∘∘∘	+++ (fold selectivity values greater than 100)
Cn1nnc2cc(CNC(=O)[C@@H]3C[C@@H](Cc4cccc(C(F)(F)F)c4)CN3C(=O)[C@H]3C[C@@H](c4ccccc4)CN3)ccc21 [Example M05356]	> 2000 nM	∘∘	++ (fold selectivity value of 10 to 100)
Cn1nnc2cc(CNC(=O)[C@@H]3C[C@@H](Cc4ccccc4C(F)(F)F)CN3C(=O)[C@H]3C[C@@H](c4ccccc4)CN3)ccc21 [Example M05357]	> 2000 nM	∘∘	++ (fold selectivity value of 10 to 100)
Cc1cccc(C[C@@H]2C[C@@H](C(=O)NCc3ccc4c(c3)nnn4C)N(C(=O)[C@H]3C[C@@H](c4ccccc4)CN3)C2)c1 [Example M05359]	200 to 2000 nM	∘∘	++ (fold selectivity value of 10 to 100)
Cc1ccccc1C[C@@H]1C[C@@H](C(=O)NCc2ccc3c(c2)nnn3C)N(C(=O)[C@H]2C[C@@H](c3ccccc3)CN2)C1 [Example M05360]	200 to 2000 nM	∘∘	++ (fold selectivity value of 10 to 100)
Cn1nnc2cc(CNC(=O)[C@@H]3C[C@@H](Cc4ccc(F)cc4F)CN3C(=O)[C@H]3C[C@@H](c4ccccc4)CN3)ccc21 [Example M05361]	200 to 2000 nM	∘∘	++ (fold selectivity value of 10 to 100)
Cn1nnc2cc(CNC(=O)[C@@H]3C[C@@H](Cc4ccc(OC(F)(F)F)cc4)CN3C(=O)[C@H]3C[C@@H](c4ccccc4)CN3)ccc21 [Example M05362]	200 to 2000 nM	∘∘	++ (fold selectivity value of 10 to 100)
Cn1nnc2cc(CNC(=O)[C@@H]3C[C@@H](Cc4ccc(-c5cn[nH]c5)cc4)CN3C(=O)[C@H]3C[C@@H](c4ccccc4)CN3)ccc21 [Example M05364]	> 2000 nM	∘∘	++ (fold selectivity value of 10 to 100)
COc1ccc(C[C@@H]2C[C@@H](C(=O)NCc3ccc4c(c3)nnn4C)N(C(=O)[C@H]3CC(c4ccccc4C)CN3)C2)cc1 (stereo partly drawn) [Example M05365]	200 to 2000 nM	∘∘∘	+++ (fold selectivity values greater than 100)
Cn1nnc2cc(CNC(=O)[C@@H]3C[C@@H](Cc4cccc(Br)c4)CN3C(=O)[C@H]3C[C@@H](c4ccccc4)CN3)ccc21 [Example M05366]	200 to 2000 nM	∘∘	++ (fold selectivity value of 10 to 100)
Cn1nccc1-c1ccc(C[C@@H]2C[C@@H](C(=O)NCc3ccc4c(c3)nnn4C)N(C(=O)[C@H]3C[C@@H](c4ccccc4)CN3)C2)cc1 [Example M05367]	200 to 2000 nM	∘∘∘	+++ (fold selectivity values greater than 100)
COc1ccc(C[C@@H]2C[C@@H](C(=O)NCc3ccc4c(c3)nnn4C)N(C(=O)[C@@H]3NCCc4ccccc43)C2)cc1 [Example M05368]	> 2000 nM	∘∘	++ (fold selectivity value of 10 to 100)
Cn1nnc2cc(CNC(=O)[C@@H]3C[C@@H](Cc4cccc5c4CCO5)CN3C(=O)[C@H]3C[C@@H](c4ccccc4)CN3)ccc21 [Example M05371]	> 2000 nM	∘∘	++ (fold selectivity value of 10 to 100)
Cn1nnc2cc(CNC(=O)[C@@H]3C[C@@H](Cc4ccc(S(C)(=O)=O)cc4)CN3C(=O)[C@H]3C[C@@H](c4ccccc4)CN3)ccc21 [Example M05372]	200 to 2000 nM	∘∘∘	++ (fold selectivity value of 10 to 100)
Cn1nnc2cc(CNC(=O)[C@@H]3C[C@@H](Cc4ccc(Cl)cc4Cl)CN3C(=O)[C@H]3C[C@@H](c4ccccc4)CN3)ccc21 [Example M05373]	200 to 2000 nM	∘∘	++ (fold selectivity value of 10 to 100)
COc1ccc(C[C@@H]2C[C@@H](C(=O)NCc3ccc4c(c3)nnn4C)N(C(=O)[C@H]3C[C@@H](c4ccccc4)CCN3)C2)cc1 [Example M05374]	> 2000 nM	∘∘	++ (fold selectivity value of 10 to 100)
COc1ccc(C[C@@H]2C[C@@H](C(=O)NCc3ccc4c(c3)nnn4C)N(C(=O)[C@H]3CC(c4ccnn4C)CN3)C2)cc1 (stereo partly drawn) [Example M05376]	> 2000 nM	∘∘	++ (fold selectivity value of 10 to 100)
COc1ccc(C[C@@H]2C[C@@H](C(=O)NCc3ccc4c(c3)nnn4C)N(C(=O)[C@H]3CC(c4ccccc4F)CN3)C2)cc1 (stereo partly drawn) [Example M05377]	200 to 2000 nM	∘∘∘	+++ (fold selectivity values greater than 100)
COc1ccc(C[C@@H]2C[C@@H](C(=O)NCc3ccc4c(c3)nnn4C)N(C(=O)[C@H]3CC(c4ccccc4OC)CN3)C2)cc1 (stereo partly drawn) [Example M05378]	200 to 2000 nM	∘∘∘	++ (fold selectivity value of 10 to 100)
COc1ccc(C[C@@H]2C[C@@H](C(=O)NCc3ccc4c(c3)nnn4C)N(C(=O)[C@H](N)CC(O)c3ccccc3)C2)cc1 (stereo partly drawn) [Example M05379]	200 to 2000 nM	∘∘∘	+++ (fold selectivity values greater than 100)
Cn1nnc2cc(CNC(=O)[C@@H]3C[C@@H](Cc4cccc5c4CCO5)CN3C(=O)[C@H](N)CCC(=O)N3CCCC3)ccc21 [Example M05380]	200 to 2000 nM	∘∘∘	+++ (fold selectivity values greater than 100)
COc1ccc(C[C@@H]2C[C@@H](C(=O)NCc3ccc4c(c3)nnn4C)N(C(=O)[C@H]3C[C@@H](c4cnn(C)c4)CN3)C2)cc1 [Example M05381]	200 to 2000 nM	∘∘∘	+++ (fold selectivity values greater than 100)
CCOc1ccc(C[C@@H]2C[C@@H](C(=O)NCc3ccc4c(c3)nnn4C)N(C(=O)[C@H]3C[C@@H](c4ccccc4)CN3)C2)cc1 [Example M05382]	200 to 2000 nM	∘∘∘	+++ (fold selectivity values greater than 100)
COc1ccc(C[C@@H]2C[C@@H](C(=O)NCc3ccc4c(c3)nnn4C)N(C(=O)[C@H]3C[C@@H](Cc4ccccc4)CN3)C2)cc1 [Example M05383]	200 to 2000 nM	∘∘∘	++ (fold selectivity value of 10 to 100)
Cn1nnc2cc(CNC(=O)[C@@H]3C[C@@H](Cc4ccc(S(C)(=O)=O)cc4)CN3C(=O)[C@H](N)CCC(=O)N3CCCC3)ccc21 [Example M05384]	200 to 2000 nM	∘∘∘	+++ (fold selectivity values greater than 100)
